Test results published in patent US20040254162A1, “Oxazolidinone derivatives as antimicrobials” (priority 2001, published 2004).
Converted amounts (≈) assume the structure as drawn.

Columns and labels:
Assay in all cases: MIC, agar incorporation method
S. aureus ATCC 25923 = settings: agar incorporation
MRSA 15187 = settings: agar incorporation
MRSA 562 = settings: agar incorporation; Table 1
MRSA 33 = settings: agar incorporation
Ent. faecalis ATCC 29212 = settings: agar incorporation
VRE 6A (Ent. faecium 6A) = settings: agar incorporation
Strep. pyog. ATCC 19615 = settings: agar incorporation
Strep. pne. ATCC 6303 = settings: agar incorporation
S. pneum AB 34 = settings: agar incorporation

SMILES | MIC S. aureus 25923 (S. aureus ATCC 25923) | MIC MRSA 15187 (MRSA 15187) | MIC MRSA 562 (MRSA 562) | MIC MRSA 33 (MRSA 33) | MIC E. faecalis 29212 (Ent. faecalis ATCC 29212) | MIC VRE 6A (VRE 6A (Ent. faecium 6A)) | MIC S. pyogenes 19615 (Strep. pyog. ATCC 19615) | MIC S. pneum 6303 (Strep. pne. ATCC 6303) | MIC S. pneum AB 34 (S. pneum AB 34)
CC(=O)NC[C@H]1CN(c2ccc(N3CCN(Cc4cccn4C)CC3)c(F)c2)C(=O)O1 [Compound No. 22, (S)-N[[3-[3-Fluoro-4-[N-1[4-{2-pyrrole(1-methyl)methyl}]piperazinyl]phenyl]2-oxo-5-oxazolidinyl]methyl]acetamide] | 2 µg/mL (≈ 4.66 µM) | 8 µg/mL (≈ 18.6 µM) | 4 µg/mL (≈ 9.31 µM) | 8 µg/mL (≈ 18.6 µM) | 8 µg/mL (≈ 18.6 µM) | 8 µg/mL (≈ 18.6 µM) | 1 µg/mL (≈ 2.33 µM) | 1 µg/mL (≈ 2.33 µM) | 1 µg/mL (≈ 2.33 µM)
CC(=O)NC[C@H]1CN(c2ccc(N3CC4C(CN(C)Cc5ccc([N+](=O)[O-])s5)C4C3)c(F)c2)C(=O)O1 (stereo partly drawn) [Compound No. 39, (S)-N-[[3-[3-Fluoro[4-[3-(1α,5α,6α)-6-[N-(5-nitro-2-thienylmethyl)-N-methyl]-amino-methyl]-3-azabicyclo-[3.1.0]hexane]phenyl]-2-oxo-5-oxazolidinyl]methyl]acetamide] | 8 µg/mL (≈ 15.5 µM) | 8 µg/mL (≈ 15.5 µM) | 8 µg/mL (≈ 15.5 µM) | 4 µg/mL (≈ 7.73 µM) | 2 µg/mL (≈ 3.86 µM) | 8 µg/mL (≈ 15.5 µM) | 0.5 µg/mL (≈ 0.966 µM) | 0.5 µg/mL (≈ 0.966 µM) | 0.5 µg/mL (≈ 0.966 µM)
CC(=O)NC[C@H]1CN(c2ccc(N3CCN(Cc4ccc(C=NN)o4)CC3)c(F)c2)C(=O)O1 [Compound No. 62, (S)-N-[[3-[3-Fluoro-4[N-1-[4-{2-furyl-(5-hydrazone)-methyl}]-piperazinyl]-phenyl]-2-oxo-5-oxazolidinyl]-methyl]acetamide] | 2 µg/mL (≈ 4.36 µM) | 2 µg/mL (≈ 4.36 µM) | 1 µg/mL (≈ 2.18 µM) | 2 µg/mL (≈ 4.36 µM) | 8 µg/mL (≈ 17.4 µM) | 8 µg/mL (≈ 17.4 µM) | 8 µg/mL (≈ 17.4 µM) | 8 µg/mL (≈ 17.4 µM) | 8 µg/mL (≈ 17.4 µM)
CC(=O)NC[C@H]1CN(c2ccc(N3CCN(Cc4ccc(Br)s4)CC3)c(F)c2)C(=O)O1 [Compound No. 27] | 2 µg/mL (≈ 3.91 µM) | 2 µg/mL (≈ 3.91 µM) | 2 µg/mL (≈ 3.91 µM) | 2 µg/mL (≈ 3.91 µM) | 2 µg/mL (≈ 3.91 µM) | 4 µg/mL (≈ 7.82 µM) | 1 µg/mL (≈ 1.96 µM) | 2 µg/mL (≈ 3.91 µM) | 0.5 µg/mL (≈ 0.978 µM)
CC(=O)NC[C@H]1CN(c2ccc(N3CCN(Cc4cc(Br)cs4)CC3)c(F)c2)C(=O)O1 [Compound No. 14, (S)-N-[[3-[3-Fluoro-4-[N-1[4-{2-thienyl(4-bromo)methyl}]piperazinyl]phenyl]-2-oxo-5-oxazolidinyl]methyl]acetamide] | 4 µg/mL (≈ 7.82 µM) | 2 µg/mL (≈ 3.91 µM) | 2 µg/mL (≈ 3.91 µM) | 2 µg/mL (≈ 3.91 µM) | 2 µg/mL (≈ 3.91 µM) | 2 µg/mL (≈ 3.91 µM) | 2 µg/mL (≈ 3.91 µM) | 4 µg/mL (≈ 7.82 µM) | 4 µg/mL (≈ 7.82 µM)
CC(=O)NC[C@H]1CN(c2ccc(N3CCN(Cc4ccc(C=O)o4)CC3)c(F)c2)C(=O)O1 [Compound No. 02, (S)-N-[[3-[3-Fluoro-4-[N-1[4-{2-furyl(5-formyl)methyl}]piperazinyl]phenyl]-2-oxo-5-oxazolidinyl]methyl]acetamide] | 1 µg/mL (≈ 2.25 µM) | 2 µg/mL (≈ 4.5 µM) | 1 µg/mL (≈ 2.25 µM) | 2 µg/mL (≈ 4.5 µM) | 8 µg/mL (≈ 18 µM) | 8 µg/mL (≈ 18 µM) | 8 µg/mL (≈ 18 µM) | 4 µg/mL (≈ 9 µM) | 8 µg/mL (≈ 18 µM)
